Structures can show the parent of a compound that is named as a salt. Where two headings read alike, the source gives them in different places.
Assays:
[1] = molecular target: T1, Recombinant GST-TAG-MASTL (Homo sapiens, UniProt Q96GX5); test: HTRF-based kinase assay (HTRF KinEASE assay kit); format: biochemical; settings: for activity at 1 µM: read-out: MASTL activity (%) HTRF (1 µM)
T1 construct: GST; purchased Thermo Fisher Scientific
T1 sequence (Q96GX5 1-879): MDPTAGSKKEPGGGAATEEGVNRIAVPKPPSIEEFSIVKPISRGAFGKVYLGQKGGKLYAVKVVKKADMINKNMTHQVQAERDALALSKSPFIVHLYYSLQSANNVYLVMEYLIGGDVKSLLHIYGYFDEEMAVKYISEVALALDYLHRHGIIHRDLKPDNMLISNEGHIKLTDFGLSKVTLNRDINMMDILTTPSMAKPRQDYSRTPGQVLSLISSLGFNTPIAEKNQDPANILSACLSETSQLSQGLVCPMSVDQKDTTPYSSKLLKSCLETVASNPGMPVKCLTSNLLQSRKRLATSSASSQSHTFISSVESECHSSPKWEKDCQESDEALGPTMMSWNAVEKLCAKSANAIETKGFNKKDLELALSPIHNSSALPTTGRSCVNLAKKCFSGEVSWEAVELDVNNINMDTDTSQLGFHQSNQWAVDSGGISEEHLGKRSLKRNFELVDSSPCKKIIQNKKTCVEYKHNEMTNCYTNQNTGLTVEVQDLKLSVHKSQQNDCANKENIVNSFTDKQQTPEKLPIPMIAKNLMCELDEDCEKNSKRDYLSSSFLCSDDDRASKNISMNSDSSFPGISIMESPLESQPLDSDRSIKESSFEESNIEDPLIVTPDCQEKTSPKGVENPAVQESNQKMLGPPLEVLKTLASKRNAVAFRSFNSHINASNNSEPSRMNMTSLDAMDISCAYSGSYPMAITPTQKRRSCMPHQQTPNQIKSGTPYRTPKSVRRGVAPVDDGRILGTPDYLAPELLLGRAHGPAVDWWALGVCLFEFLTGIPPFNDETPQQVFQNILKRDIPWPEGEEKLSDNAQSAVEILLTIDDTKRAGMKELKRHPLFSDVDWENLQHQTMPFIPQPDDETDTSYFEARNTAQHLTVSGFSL
Excerpt: Recombinant GST-TAG-MASTL (Thermo Fisher Scientific, MA, USA) was used for HTRF-based kinase assays. The HTRF KinEASE assay kit (CisBio, MA, USA) was used according to the manufacturer's instructions.

[2] = tested on: pENSA; test: pENSA level by immunofluorescence (described method: in vitro kinase analysis with GST-tag-MASTL and His-tag-ENSA); format: cell-based; settings: for pENSA (%) Immunofluor ecense (1 µM): compound 1 µM
Procedure, shortened: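 In vitro kinase reaction using recombinant GST-tagged MASTL with His-tagged ENSA as substrate; phosphorylated ENSA (pENSA) serves as read-out of MASTL activity. Cell lines named: MCF7 breast cancer and MCF10A.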

[3] = in vitro; settings: human
Experimental: (§1) MCF7 breast cancer cell lines and MCF10A normal breast cancer cell lines were treated with serial dilutions of the compounds of the present invention ranging from 1 µM to 15.63 nM for 72 hours. Cell viability was measured by the WST-8 assay (Cyto XTM cell viability assay kit; LPS solution, Daejeon, Korea) according to the manufacturer's instructions.

[4] = tested on: MCF7 breast cancer cell lines; test: Cell viability analysis, WST-8 assay, MCF7; settings: Homo sapiens, MCF7, 72 h; for viability at 1 µM: read-out: Cell viability (%) WST-8, MCF7 (1 µM), compound 1 µM, 72 hours; for viability at 1.25 µM: read-out: Cell viability (%) WST-8, MCF7, footnote a: concentration 1.25 µM, 72 hours
Experimental: as §1

[5] = tested on: MCF10A normal breast cell lines; test: Cell viability analysis, WST-8 assay, MCF10A; settings: Homo sapiens, MCF-10A, 72 h
Experimental: as §1

[6] = read-out: IC50 Cell viability (MCF7)
[7] = read-out: IC50 Cell viability (MCF10A)
[8] = HTRF, read-out: IC50(nM) MASTL activity
[9] = footnote b: concentration 10 µM, read-out: MASTL activity (%) HTRF
[10] = read-out: IC50(nM) Cell viability (MCF7)
[11] = read-out: IC50(nM) Cell viability (MCF10A)

NCCCNC(=O)c1ccc(Nc2nc(Nc3cc(C4CC4)[nH]n3)c3ccccc3n2)cc1 [4ab, M-(3-aminopropyl)-4-((4-((5-cyclopropyl-1G-pyrazol-3-yl)amino)quinazolin-2-yl)amino)benzamide.trifluoroacetic acid]
IC50 [1]: 1100 nM
activity at 1 µM [1]: 36.2%
pENSA (%) Immunofluor ecense (1 µM) [2]: 188%
viability at 1 µM ([3]; mcf10a cells): 101%
viability at 1 µM [4]: 101%
IC50 [4, 6]: 12400 nM
IC50 [5, 7]: 5800 nM

CNCc1ccc(-c2nc(Nc3cc(C4CC4)[nH]n3)c3ccccc3n2)cc1 [9d, N-(5-cyclopropyl-1H-pyrazol-3-yl)-2-(4-((methylamino)methyl)phenyl)quinazolin-4-amine hydrogen chloride]
IC50 [1, 8]: 119 nM
activity at 10 µM [1, 9]: 20.4%
IC50 ([2]; read-out: IC50(nM) pENSA): 577 nM
viability at 1.25 µM [3]: 11.1%
viability at 1.25 µM [4]: 36.2%
IC50 [4, 10]: 539 nM
IC50 [5, 11]: 413 nM

c1ccc2c(Nc3cc(C4CC4)[nH]n3)nc(N3CC4CCC(C3)N4)nc2c1 [20' (B), 2-(3,8-diazabicyclo[3.2.1]octan-3-yl)-M-(5-cyclopropyl-1G-pyrazol-3-yl)quinazolin-4-amine trifluoroacetic acid]
IC50 [1]: 106 nM
activity at 1 µM [1]: 6.6%
pENSA (%) Immunofluor ecense (1 µM) [2]: 21%
IC50 ([2]; read-out: IC50(nM) pENSA): 755 nM
viability at 1 µM ([3]; mcf10a cells): 34.9%
viability at 1 µM [4]: 32%
IC50 [4, 10]: 365 nM
IC50 [5, 11]: 596 nM

c1ccc(Nc2nc(Nc3cc(C4CC4)[nH]n3)c3ccccc3n2)cc1 [compound 4a, M^4-(5-cyclopropyl-1G-pyrazol-3-yl)-M^2-phenylquinazoline-2,4-diamine]
IC50 [1, 8]: 987 nM
activity at 1.25 µM ([1]; footnote a: concentration 1.25 µM, read-out: MASTL activity (%) HTRF): 54.9%
pENSA (%) Immunofluor ecense (1 µM) [2]: 3.7%
IC50 ([2]; read-out: IC50(nM) pENSA): 501 nM
viability at 1.25 µM ([3]; mcf10a cells): 34%
viability at 1.25 µM [4]: 8.1%
IC50 [4, 10]: 649 nM
IC50 [5, 11]: 881 nM

c1ccc(CNc2nc(Nc3cc(C4CC4)[nH]n3)c3ccccc3n2)cc1 [compound 4cc, N^2-benzyl-N^4-(5-cyclopropyl-1H-pyrazol-3-yl)quinazoline-2,4-diamine]
IC50 [1, 8]: 298 nM
activity at 10 µM [1, 9]: 22%
IC50 ([2]; read-out: IC50(nM) pENSA): 363 nM
viability at 1.25 µM [3]: 98.5%
viability at 1.25 µM [4]: 65.5%
IC50 [4, 6]: 1100 nM
IC50 [5, 7]: 2800 nM

COc1ccc(CNc2nc(Nc3cc(C4CC4)[nH]n3)c3ccccc3n2)cc1 [compound 4cd, N^4-(5-cyclopropyl-1H-pyrazol-3-yl)-N^2-(4-methoxybenzyl)quinazoline-2,4-diamine]
IC50 [1, 8]: 476 nM
activity at 10 µM [1, 9]: 20.3%
IC50 ([2]; read-out: IC50(nM) pENSA): 543 nM
viability at 1.25 µM [3]: 83.9%
viability at 1.25 µM [4]: 83.8%
IC50 [4, 6]: 2600 nM
IC50 [5, 7]: 2700 nM

c1ccc(CCNc2nc(Nc3cc(C4CC4)[nH]n3)c3ccccc3n2)cc1 [compound 4ce, N^4-(5-cyclopropyl-1H-pyrazol-3-yl)-N^2-phenethylquinazoline-2,4-diamine]
IC50 [1, 8]: 692 nM
activity at 10 µM [1, 9]: 14.1%
IC50 ([2]; read-out: IC50(nM) pENSA): 491 nM
viability at 1.25 µM [3]: 100%
viability at 1.25 µM [4]: 72.8%
IC50 [4, 6]: 1500 nM
IC50 [5, 7]: 3700 nM

OCCNc1nc(Nc2cc(C3CC3)[nH]n2)c2ccccc2n1 [compound 4cf, 2-((4-((5-cyclopropyl-1G-pyrazol-3-yl)amino)quinazolin-2-yl)amino)ethan-1-ol hydrochloride]
IC50 [1, 8]: 893 nM
activity at 10 µM [1, 9]: 23.7%
pENSA (%) Immunofluor ecense (1 µM) [2]: 17.4%
IC50 ([2]; read-out: IC50(nM) pENSA): 423 nM
viability at 1.25 µM ([3]; mcf10a cells): 56.4%
viability at 1.25 µM [4]: 87%
IC50 [4, 6]: 1800 nM
IC50 [5, 7]: 1200 nM

c1ccc2c(Nc3cc(C4CC4)[nH]n3)nc(Nc3cccc4[nH]ccc34)nc2c1 [compound 4da, N^4-(5-cyclopropyl-1H-pyrazol-3-yl)-N^2-(1H-indol-4-yl)quinazoline-2,4-diamine]
IC50 [1, 8]: 309 nM
activity at 1 µM ([1]; compound 1 µM): 58.5%
IC50 ([2]; unit µM, read-out: IC50 pENSA): 1800 nM
viability at 1 µM [3]: 18.9%
viability at 1 µM [4]: 30.1%
IC50 [4, 10]: 702 nM
IC50 [5, 11]: 683 nM

c1ccc2c(Nc3cc(C4CC4)[nH]n3)nc(Nc3ccc4[nH]ccc4c3)nc2c1 [compound 4db, N^4-(5-cyclopropyl-1H-pyrazol-3-yl)-N^2-(1H-indol-5-yl)quinazoline-2,4-diamine]
activity at 1 µM ([1]; compound 1 µM): 28.9%
IC50 ([2]; unit µM, read-out: IC50 pENSA): 2100 nM
viability at 1 µM [3]: 8.9%
viability at 1 µM [4]: 3.2%
IC50 [4, 10]: 221 nM
IC50 [5, 11]: 300 nM

c1ccc2c(Nc3cc(C4CC4)[nH]n3)nc(Nc3ccc4cc[nH]c4c3)nc2c1 [compound 4dc, N^4-(5-cyclopropyl-1H-pyrazol-3-yl)-N^2-(1H-indol-6-yl)quinazoline-2,4-diamine]
IC50 [1, 8]: 480 nM
activity at 1 µM ([1]; compound 1 µM): 22.1%
IC50 ([2]; unit µM, read-out: IC50 pENSA): 2500 nM
viability at 1 µM [3]: 54%
viability at 1 µM [4]: 6.4%
IC50 [4, 10]: 467 nM
IC50 [5, 7]: 1300 nM

c1ccc2c(Nc3cc(C4CC4)[nH]n3)nc(Nc3ccc4[nH]ncc4c3)nc2c1 [compound 4dd, N^4-(5-cyclopropyl-1H-pyrazol-3-yl)-N^2-(1H-indazol-5-yl)quinazoline-2,4-diamine]
IC50 [1, 8]: 157 nM
activity at 1 µM ([1]; compound 1 µM): 17.9%
IC50 ([2]; unit µM, read-out: IC50 pENSA): 1500 nM
viability at 1 µM [3]: 3.7%
viability at 1 µM [4]: 12.9%
IC50 [4, 10]: 317 nM
IC50 [5, 11]: 107 nM

CNS(=O)(=O)c1ccc(Nc2nc(Nc3cc(C4CC4)[nH]n3)c3ccccc3n2)cc1 [compound 4h, 4-((4-((5-cyclopropyl-1G-pyrazol-3-yl)amino)quinazolin-2-yl)amino)-M-methylbenzenesulfonamide]
IC50 [1, 8]: 843 nM
activity at 10 µM [1, 9]: 17.6%
pENSA (%) Immunofluor ecense (1 µM) [2]: 17.1%
IC50 ([2]; read-out: IC50(nM) pENSA): 408 nM
viability at 1.25 µM ([3]; mcf10a cells): 4.7%
viability at 1.25 µM [4]: 41.8%
IC50 [4, 10]: 758 nM
IC50 [5, 11]: 57.2 nM

O=S(=O)(NCCO)c1ccc(Nc2nc(Nc3cc(C4CC4)[nH]n3)c3ccccc3n2)cc1 [compound 4i, 4-((4-((5-cyclopropyl-1G-pyrazol-3-yl)amino)quinazolin-2-yl)amino)-M-(2-hydroxyethyl)benzenesulfonamide]
IC50 [1]: 1200 nM
activity at 10 µM ([1]; read-out: MASTL activity (%) HTRF): 8.7%
pENSA (%) Immunofluor ecense (1 µM) [2]: 16%
IC50 ([2]; read-out: IC50(nM) pENSA): 378 nM
viability at 1.25 µM ([3]; mcf10a cells): 5.8%
viability at 1.25 µM [4]: 45.9%
IC50 [4, 6]: 1100 nM
IC50 [5, 11]: 132 nM

— patent EP4786466A1, “QUINAZOLINE DERIVATIVE, SALT THEREOF, AND PHARMACEUTICAL COMPOSITION COMPRISING SAME AS ACTIVE INGREDIENT” (Korea Research Institute of Chemical Technology, priority 2023, dated 2025)
